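In this assay, cells in 96-well plates receive the compound at five concentrations for 48 hours. Endpoints are linearly interpolated between the surrounding concentrations. At the GI50, growth is halved. TGI: concentration producing complete growth inhibition.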
Tests used:
Assay in all cases: inhibition of tumour cell growth, NCI panel, 48 h
SK-MEL-28 melanoma = test system: SK-MEL-28 melanoma
MOLT-4 leukemia = test system: MOLT-4 leukemia
MALME-3M melanoma = test system: MALME-3M melanoma
BT-549 breast = test system: BT-549 breast
OVCAR-5 ovarian = test system: OVCAR-5 ovarian
SR leukemia = test system: SR leukemia
NCI-H226 lung = test system: NCI-H226 lung
KM12 colon = test system: KM12 colon
RPMI-8226 leukemia = test system: RPMI-8226 leukemia
HOP-62 NSCLC = test system: HOP-62 NSCLC
SK-MEL-2 melanoma = test system: SK-MEL-2 melanoma
SK-MEL-5 melanoma = test system: SK-MEL-5 melanoma
PC-3 prostate = test system: PC-3 prostate
HT29 colon = test system: HT29 colon
UACC-62 melanoma = test system: UACC-62 melanoma
HL-60(TB) leukemia = test system: HL-60(TB) leukemia
NCI-H460 lung = test system: NCI-H460 lung
NCI/ADR-RES ovarian = test system: NCI/ADR-RES ovarian
SN12C renal = test system: SN12C renal
MCF7 breast = test system: MCF7 breast
MDA-MB-435 = test system: MDA-MB-435
HOP-92 NSCLC = test system: HOP-92 NSCLC
SNB-75 CNS = test system: SNB-75 CNS
HCC-2998 colon = test system: HCC-2998 colon
OVCAR-3 ovarian = test system: OVCAR-3 ovarian
SK-OV-3 ovarian = test system: SK-OV-3 ovarian
OVCAR-4 ovarian = test system: OVCAR-4 ovarian
ACHN renal = test system: ACHN renal
NCI-H522 lung = test system: NCI-H522 lung
SF-295 CNS = test system: SF-295 CNS
DU-145 prostate = test system: DU-145 prostate
TK-10 renal = test system: TK-10 renal
IGROV1 ovarian = test system: IGROV1 ovarian
SF-539 CNS = test system: SF-539 CNS
A549 NSCLC = test system: A549 NSCLC
MDA-MB-231 breast = test system: MDA-MB-231 breast
A498 renal = test system: A498 renal
RXF 393 renal = test system: RXF 393 renal
COLO 205 colon = test system: COLO 205 colon
HS 578T breast = test system: HS 578T breast
SW-620 colon = test system: SW-620 colon
UACC-257 melanoma = test system: UACC-257 melanoma
HCT-15 colon = test system: HCT-15 colon
LOX IMVI melanoma = test system: LOX IMVI melanoma
CAKI-1 renal = test system: CAKI-1 renal
UO-31 renal = test system: UO-31 renal
T-47D breast = test system: T-47D breast
U251 CNS = test system: U251 CNS
K-562 leukemia = test system: K-562 leukemia
M14 melanoma = test system: M14 melanoma

`COc1cc(/C=N/Nc2ccnc3cc(Cl)ccc23)cc(OC)c1O` was tested, and the GI50 (SK-MEL-28 melanoma) was 1.79 µM, the TGI (SK-MEL-28 melanoma) was 3.21 µM and the GI50 (MOLT-4 leukemia) was 2.36 µM. It also gave a TGI (MOLT-4 leukemia) of 5.71 µM, a GI50 (MALME-3M melanoma) of 1.87 µM and a TGI (MALME-3M melanoma) of 3.44 µM. It also gave a GI50 (BT-549 breast) of 1.75 µM, a TGI (BT-549 breast) of 3.27 µM and a GI50 (OVCAR-5 ovarian) of 1.67 µM. For the same molecule, the TGI (OVCAR-5 ovarian) was 3.08 µM, the GI50 (SR leukemia) was 1.9 µM and the TGI (SR leukemia) was 4.72 µM. It also gave a GI50 (NCI-H226 lung) of 1.79 µM, a TGI (NCI-H226 lung) of 3.67 µM and a GI50 (KM12 colon) of 2.39 µM. It also gave a TGI (KM12 colon) of 6.05 µM, a GI50 (RPMI-8226 leukemia) of 2.18 µM and a TGI (RPMI-8226 leukemia) of 4.78 µM. For the same molecule, the GI50 (HOP-62 NSCLC) was 1.69 µM, the TGI (HOP-62 NSCLC) was 3.13 µM and the GI50 (SK-MEL-2 melanoma) was 16.3 µM. The TGI (SK-MEL-2 melanoma) was 32.8 µM, the GI50 (SK-MEL-5 melanoma) was 1.77 µM and the TGI (SK-MEL-5 melanoma) was 3.17 µM. It also gave a GI50 (PC-3 prostate) of 1.66 µM, a TGI (PC-3 prostate) of 3.18 µM and a GI50 (HT29 colon) of 1.81 µM. It also gave a TGI (HT29 colon) of 3.34 µM, a GI50 (UACC-62 melanoma) of 1.71 µM and a TGI (UACC-62 melanoma) of 3.25 µM. The GI50 (HL-60(TB) leukemia) was 1.89 µM, the TGI (HL-60(TB) leukemia) was 3.86 µM and the GI50 (NCI-H460 lung) was 2.05 µM. It also gave a TGI (NCI-H460 lung) of 3.73 µM, a GI50 (NCI/ADR-RES ovarian) of 2.13 µM and a TGI (NCI/ADR-RES ovarian) of 4.51 µM. The GI50 (SN12C renal) was 1.8 µM, the TGI (SN12C renal) was 3.56 µM and the GI50 (MCF7 breast) was 1.58 µM. The TGI (MCF7 breast) was 3.37 µM, the GI50 (MDA-MB-435) was 1.69 µM and the TGI (MDA-MB-435) was 3.07 µM. It also gave a GI50 (HOP-92 NSCLC) of 1.44 µM, a TGI (HOP-92 NSCLC) of 2.89 µM and a GI50 (SNB-75 CNS) of 1.67 µM. The TGI (SNB-75 CNS) was 3.08 µM, the GI50 (HCC-2998 colon) was 1.73 µM and the TGI (HCC-2998 colon) was 3.23 µM. For the same molecule, the GI50 (OVCAR-3 ovarian) was 2.41 µM, the TGI (OVCAR-3 ovarian) was 5.47 µM and the GI50 (SK-OV-3 ovarian) was 1.72 µM. For the same molecule, the TGI (SK-OV-3 ovarian) was 3.14 µM, the GI50 (OVCAR-4 ovarian) was 1.85 µM and the TGI (OVCAR-4 ovarian) was 3.63 µM. For the same molecule, the GI50 (ACHN renal) was 1.83 µM, the TGI (ACHN renal) was 3.23 µM and the GI50 (NCI-H522 lung) was 1.66 µM. For the same molecule, the TGI (NCI-H522 lung) was 3.2 µM, the GI50 (SF-295 CNS) was 1.79 µM and the TGI (SF-295 CNS) was 3.32 µM. For the same molecule, the GI50 (DU-145 prostate) was 1.9 µM, the TGI (DU-145 prostate) was 3.61 µM and the GI50 (TK-10 renal) was 1.81 µM. For the same molecule, the TGI (TK-10 renal) was 3.25 µM, the GI50 (IGROV1 ovarian) was 1.85 µM and the TGI (IGROV1 ovarian) was 3.63 µM. It also gave a GI50 (SF-539 CNS) of 1.75 µM, a TGI (SF-539 CNS) of 3.16 µM and a GI50 (A549 NSCLC) of 1.74 µM. The TGI (A549 NSCLC) was 3.21 µM, the GI50 (MDA-MB-231 breast) was 2.05 µM and the TGI (MDA-MB-231 breast) was 4.05 µM. For the same molecule, the GI50 (A498 renal) was 18.9 µM, the TGI (A498 renal) was 38.5 µM and the GI50 (RXF 393 renal) was 1.75 µM. The TGI (RXF 393 renal) was 3.31 µM, the GI50 (COLO 205 colon) was 1.86 µM and the TGI (COLO 205 colon) was 3.42 µM. The GI50 (HS 578T breast) was 2.03 µM, the TGI (HS 578T breast) was 4.44 µM and the GI50 (SW-620 colon) was 1.69 µM. For the same molecule, the TGI (SW-620 colon) was 3.66 µM, the GI50 (UACC-257 melanoma) was 1.77 µM and the TGI (UACC-257 melanoma) was 3.3 µM. For the same molecule, the GI50 (HCT-15 colon) was 1.78 µM, the TGI (HCT-15 colon) was 3.43 µM and the GI50 (LOX IMVI melanoma) was 2.15 µM. It also gave a TGI (LOX IMVI melanoma) of 3.65 µM, a GI50 (CAKI-1 renal) of 1.66 µM and a TGI (CAKI-1 renal) of 3.02 µM. The GI50 (UO-31 renal) was 1.69 µM, the TGI (UO-31 renal) was 3.12 µM and the GI50 (T-47D breast) was 1.8 µM. The TGI (T-47D breast) was 3.9 µM, the GI50 (U251 CNS) was 1.81 µM and the TGI (U251 CNS) was 3.26 µM. It also gave a GI50 (K-562 leukemia) of 1.63 µM, a TGI (K-562 leukemia) of 3.46 µM and a GI50 (M14 melanoma) of 1.76 µM. The TGI (M14 melanoma) was 3.22 µM.
